Where “and” joins values, the source holds several entries; their conditions need not be identical. Equal entries are not always repeated. Inconclusive results are not listed.
Test system: BDF1 mice, colon carcinoma 38 sc, T/C %
Assay: NCI In Vivo Anticancer Drug Screen. Data for tumor model Colon Carcinoma 38 (subcutaneous) in B6D2F1 (BDF1) mice
Conditions: endpoint: median tumor weight (est.), higher = larger tumour
Experimental: The antitumor activity of compounds was measured in mice bearing transplantable tumors. Survival or tumor size were measured and the results are expressed as the measurement made in the treated group (T) divided by the measurement made in the vehicle treated control group (C). The tumor model used in this assay is Colon Carcinoma 38 (subcutaneous) in B6D2F1 (BDF1) mice

[1] = dose: 12.5 mg/kg/injection, schedule: Q07DX002 (ip), vehicle: Klucel (hydroxypropylcellulose) (HPC)
[2] = dose: 25.0 mg/kg/injection, schedule: Q07DX002 (ip), vehicle: Klucel (hydroxypropylcellulose) (HPC)
[3] = dose: 25.0 mg/kg/injection, schedule: Q07DX003 (ip), vehicle: Klucel (hydroxypropylcellulose) (HPC)
[4] = dose: 50.0 mg/kg/injection, schedule: Q07DX002 (ip), vehicle: Klucel (hydroxypropylcellulose) (HPC)
[5] = dose: 50.0 mg/kg/injection, schedule: Q07DX003 (ip), vehicle: Klucel (hydroxypropylcellulose) (HPC)
[6] = dose: 100.0 mg/kg/injection, schedule: Q07DX002 (ip), vehicle: Klucel (hydroxypropylcellulose) (HPC)
[7] = dose: 100.0 mg/kg/injection, schedule: Q07DX003 (ip), vehicle: Klucel (hydroxypropylcellulose) (HPC)
[8] = dose: 200.0 mg/kg/injection, schedule: Q07DX002 (ip), vehicle: Klucel (hydroxypropylcellulose) (HPC)
[9] = dose: 200.0 mg/kg/injection, schedule: Q07DX003 (ip), vehicle: Klucel (hydroxypropylcellulose) (HPC)
[10] = dose: 400.0 mg/kg/injection, schedule: Q07DX002 (ip), vehicle: Klucel (hydroxypropylcellulose) (HPC)
[11] = dose: 400.0 mg/kg/injection, schedule: Q07DX003 (ip), vehicle: Klucel (hydroxypropylcellulose) (HPC)
[12] = dose: 0.12 mg/kg/injection, schedule: Q07DX002 (ip), vehicle: saline
[13] = dose: 1.0 mg/kg/injection, schedule: Q07DX002 (ip), vehicle: saline
[14] = dose: 12.5 mg/kg/injection, schedule: Q07DX002 (ip), vehicle: saline
[15] = dose: 25.0 mg/kg/injection, schedule: Q07DX002 (ip), vehicle: saline
[16] = dose: 50.0 mg/kg/injection, schedule: Q07DX002 (ip), vehicle: saline
[17] = dose: 100.0 mg/kg/injection, schedule: Q07DX002 (ip), vehicle: saline
[18] = dose: 200.0 mg/kg/injection, schedule: Q07DX002 (ip), vehicle: saline
[19] = dose: 25.0 mg/kg/injection, schedule: Q07DX002 (ip), vehicle: saline with Tween-80
[20] = dose: 50.0 mg/kg/injection, schedule: Q07DX002 (ip), vehicle: saline with Tween-80
[21] = dose: 100.0 mg/kg/injection, schedule: Q07DX002 (ip), vehicle: saline with Tween-80
[22] = dose: 200.0 mg/kg/injection, schedule: Q07DX002 (ip), vehicle: saline with Tween-80
[23] = dose: 400.0 mg/kg/injection, schedule: Q07DX002 (ip), vehicle: saline with Tween-80

CCC1(O)CC2CN(CCc3c([nH]c4ccccc34)C(C(=O)OC)(c3cc4c(cc3OC)N(C)C3C(O)(C(N)=O)C(O)C5(CC)C=CCN6CCC43C65)C2)C1 (centres undefined) (tested in a mixture with another compound)
T/C (dose: 0.12 mg/kg/injection, schedule: Q07DX002 (ip), vehicle: water): 87 % of control
T/C (dose: 0.5 mg/kg/injection, schedule: Q07DX002 (ip), vehicle: water): 119 % of control and 94 % of control
T/C (dose: 2.0 mg/kg/injection, schedule: Q07DX002 (ip), vehicle: water): 36 % of control and 48 % of control
T/C (dose: 4.0 mg/kg/injection, schedule: Q07DX002 (ip), vehicle: water): 5 % of control and 15 % of control

CN(C)/N=N/c1nc[nH]c1C(N)=O
T/C [1]: 28 % of control
T/C [2]: 64 % of control
T/C [3]: 75 % of control
T/C (dose: 25.0 mg/kg/injection, schedule: Q07DX003 (ip), vehicle: carboxymethylcellulose (CMC)): 37 % of control
T/C [4]: 40 % of control
T/C [5]: 43 % of control
T/C (dose: 50.0 mg/kg/injection, schedule: Q07DX003 (ip), vehicle: carboxymethylcellulose (CMC)): 28 % of control
T/C [6]: 74 % of control and 75 % of control
T/C [7]: 85 % of control
T/C (dose: 100.0 mg/kg/injection, schedule: Q07DX003 (ip), vehicle: carboxymethylcellulose (CMC)): 16 % of control
T/C [8]: 12 % of control and 28 % of control
T/C [9]: 9 % of control
T/C (dose: 200.0 mg/kg/injection, schedule: Q07DX003 (ip), vehicle: carboxymethylcellulose (CMC)): 16 % of control
T/C [10]: 13 % of control and 33 % of control
T/C [11]: 44 % of control

N#Cc1cn(C2OC(CO)C(O)C2O)c2ncnc(N)c12 (centres undefined)
T/C [12]: 91 % of control
T/C (dose: 0.25 mg/kg/injection, schedule: Q07DX002 (ip), vehicle: saline): 77 % of control
T/C [13]: 86 % of control
T/C (dose: 2.0 mg/kg/injection, schedule: Q07DX002 (ip), vehicle: saline): 59 % of control

O=Cc1ccc(C=O)c(Cl)c1
T/C [4]: 107 % of control
T/C [6]: 79 % of control
T/C [8]: 95 % of control
T/C [10]: 75 % of control

ClCCCCCCCCCCc1ccccc1
T/C [1]: 83 % of control
T/C (dose: 12.5 mg/kg/injection, schedule: Q07DX003 (ip), vehicle: Klucel (hydroxypropylcellulose) (HPC)): 77 % of control
T/C [2]: 83 % of control
T/C [3]: 95 % of control
T/C [5]: 63 % of control
T/C [6]: 67 % of control
T/C [7]: 65 % of control
T/C [8]: 80 % of control
T/C [9]: 90 % of control
T/C [10]: 88 % of control
T/C [11]: 51 % of control

CC[C@]1(O)C[C@H]2CN(CCc3c([nH]c4ccccc34)[C@@](C(=O)OC)(c3cc4c(cc3OC)N(C=O)[C@H]3[C@@](O)(C(=O)OC)[C@H](OC(C)=O)[C@]5(CC)C=CCN6CC[C@]43[C@@H]65)C2)C1
T/C (dose: 0.01 mg/kg/injection, schedule: Q07DX002 (ip), vehicle: saline): 123 % of control
T/C (dose: 0.03 mg/kg/injection, schedule: Q07DX002 (ip), vehicle: saline): 94 % of control
T/C (dose: 0.06 mg/kg/injection, schedule: Q07DX002 (ip), vehicle: saline): 95 % of control
T/C [12]: 54 % of control
T/C [13]: 96 % of control and 106 % of control
T/C (dose: 4.0 mg/kg/injection, schedule: Q07DX002 (ip), vehicle: saline): 43 % of control and 63 % of control

Nc1nc(/C=C(/O)c2ccccc2)c2ncn(C3OC(CO)C(O)C3O)c2n1 (centres undefined)
T/C (dose: 12.5 mg/kg/injection, schedule: Q07DX002 (ip), vehicle: distilled water + Tween-80): 100 % of control
T/C [14]: 120 % of control
T/C (dose: 25.0 mg/kg/injection, schedule: Q07DX002 (ip), vehicle: distilled water + Tween-80): 85 % of control
T/C [15]: 87 % of control
T/C [16]: 89 % of control
T/C (dose: 100.0 mg/kg/injection, schedule: Q07DX002 (ip), vehicle: distilled water + Tween-80): 110 % of control
T/C [17]: 99 % of control
T/C [18]: 120 % of control

COc1cc(OC)c(OC)cc1/C=C\c1ccnc2ccccc12
T/C [1]: 93 % of control
T/C [2]: 120 % of control
T/C [4]: 160 % of control and 171 % of control
T/C [6]: 85 % of control and 97 % of control
T/C [10]: 120 % of control

NCCCNCCSP(=O)(O)O
T/C (dose: 6.25 mg/kg/injection, schedule: Q07DX002 (ip), vehicle: saline): 101 % of control
T/C [14]: 103 % of control
T/C [19]: 83 % of control
T/C [15]: 81 % of control
T/C [20]: 73 % of control
T/C [16]: 109 % of control
T/C [21]: 91 % of control
T/C [17]: 72 % of control
T/C [22]: 82 % of control
T/C [18]: 76 % of control
T/C [23]: 82 % of control

CCC(C(=O)O)C(=O)O.[NH2-].[NH2-].[Pt+2]
T/C [16]: 46 % of control
T/C [17]: 19 % of control
T/C [18]: 2 % of control

CC(=O)NC(CCc1ccc(Cl)c(Cl)c1)c1cccc(O)c(=O)c1 (centres undefined)
T/C [2]: 161 % of control
T/C [6]: 109 % of control
T/C [8]: 122 % of control

O=C(O)Cc1cccc2c(=O)cc(-c3ccco3)oc12
T/C [16]: 74 % of control
T/C [17]: 53 % of control

NC(N)=NC(N)=Nc1ccc(-c2ccc(N=C(N)N=C(N)N)cc2)cc1
T/C (dose: 3.12 mg/kg/injection, schedule: Q07DX002 (ip), vehicle: saline with Tween-80): 72 % of control
T/C (dose: 6.25 mg/kg/injection, schedule: Q07DX002 (ip), vehicle: saline with Tween-80): 61 % of control
T/C (dose: 12.5 mg/kg/injection, schedule: Q07DX002 (ip), vehicle: saline with Tween-80): 75 % of control
T/C [19]: 69 % of control
T/C [20]: 58 % of control

COC(=O)Nc1nc2ccc(C3(c4ccc(F)cc4)OCCO3)cc2[nH]1
T/C [14]: 111 % of control and 90 % of control
T/C [15]: 70 % of control and 87 % of control

CCN(CC)CCNc1ccc(C)c2sc3ccccc3c(=O)c12
T/C [15]: 47 % of control
T/C [16]: 78 % of control
T/C (dose: 50.0 mg/kg/injection, schedule: Q07DX002 (ip), vehicle: suspension in saline): 45 % of control
T/C [17]: 105 % of control
T/C (dose: 100.0 mg/kg/injection, schedule: Q07DX002 (ip), vehicle: suspension in saline): 24 % of control
T/C [18]: 16 % of control

COc1cccc(C2NC(=O)c3c(n[nH]c3N)S2)c1O (centres undefined)
T/C [19]: 102 % of control
T/C [20]: 106 % of control
T/C [21]: 90 % of control
T/C [22]: 94 % of control
T/C [23]: 59 % of control

CCCC(=O)Nc1ncnc2c1ncn2C1OC2COP(=O)(O)OC2C1OC(=O)CCC (centres undefined)
T/C [15]: 84 % of control and 103 % of control
T/C [17]: 101 % of control and 106 % of control
T/C (dose: 800.0 mg/kg/injection, schedule: Q07DX002 (ip), vehicle: saline): 75 % of control and 96 % of control

CC(=O)OCC1C(=O)OCC1C(=O)N1Cc2cc3ccccc3nc2C1 (centres undefined)
T/C (dose: 4.0 mg/kg/injection, schedule: Q07DX002 (ip), vehicle: saline with Tween-80): 88 % of control
T/C (dose: 8.0 mg/kg/injection, schedule: Q07DX003 (ip), vehicle: saline with Tween-80): 230 % of control
T/C (dose: 16.0 mg/kg/injection, schedule: Q07DX003 (ip), vehicle: saline with Tween-80): 191 % of control
T/C (dose: 32.0 mg/kg/injection, schedule: Q07DX003 (ip), vehicle: saline with Tween-80): 30 % of control
T/C (dose: 64.0 mg/kg/injection, schedule: Q07DX002 (ip), vehicle: saline with Tween-80): 85 % of control and 102 % of control
T/C (dose: 128.0 mg/kg/injection, schedule: Q07DX002 (ip), vehicle: saline with Tween-80): 115 % of control
T/C (dose: 128.0 mg/kg/injection, schedule: Q07DX003 (ip), vehicle: saline with Tween-80): 107 % of control

Reference: PubChem BioAssay AID212 (DTP/NCI, 2004)
